We go through five compounds from publication PMC10254170, “Diastereoselective Synthesis of the Borylated D-Galactose Monosaccharide 3-Boronic-3-Deoxy-D-Galactose and Biological Evaluation in Glycosidase Inhibition and in Cancer for Boron Neutron Capture Therapy (BNCT)” (Molecules, 2023).

Like-named read-outs stand apart in the source and are kept apart here.

For one assay, the target named is rice α-glucosidase (Oryza sativa subsp. japonica, UniProt Q653V7). Kind of assay: Glycosidase inhibition, rice α-glucosidase. The class given is biochemical. The text has this:
(§1) Glycosidase modulation studies need to explore selectivity as well as potency. Our drugs and controls are therefore screened against a panel of glycosidases in methanol (Table 1) to identify the glycosidase-related disease area(s), selectivity profile, and potency of biological action for each drug. The presence of organic boron covalently bonded to the drug structure also grants a reduced toxicity profile. Following the glycosidase inhibition range recommendations, an IC50 value >250 μm denotes weak inhibition, 100–249 μm denotes moderate inhibition, 10–99 μm good inhibition, 0.1–9 μm potent inhibition, and <0.1 μm very potent inhibition. […] Our boronated D-galactose 7 represents a novel lead in glycosidase inhibition.
(§2) The glycosidases screened are the following: rice α-glucosidase, yeast α-glucosidase, Bacillus α-glucosidase, rat intestinal maltase α-glucosidase, almond β-glucosidase, bovine liver β-glucosidase, coffee beans α-galactosidase, bovine liver β-galactosidase, Jack bean α-mannosidase, snail β-mannosidase, Penicillium decumbens α-L-rhamnosidase, bovine kidney α-L-fucosidase, Eschierichia coli β-glucuronidase, bovine liver β-glucuronidase, porcine kidney trehalase, Aspergillus niger amyloglucosidase, and bovine kidney N-acetyl-β-glucosaminidase. The disease areas for each glycosidase are summarized in [1].
(§3) Brush border membranes were prepared from the rat small intestine according to the method of Kessler et al. and were assayed at pH 6.8 for rat intestinal maltase using maltose. For rat intestinal maltase, porcine kidney trehalase, and A. niger amyloglucosidase activities, the reaction mixture contained 25 mM maltose and the appropriate amount of enzyme, and the incubations were performed for 10–30 min at 37 °C. The reaction was stopped by heating at 100 °C for 3 min. After centrifugation (600 g; 10 min), the resulting reaction mixture was added to the Glucose CII-test Wako (Wako Pure Chemical Ind., Osaka, Japan). The absorbance at 505 nm was measured to determine the amount of the released D-glucose. Other glycosidase activities were determined using an appropriate para-nitrophenyl glycoside as substrate at the optimum pH of each enzyme. The reaction mixture contained 2 mM of the substrate and the appropriate amount of enzyme. The reaction was stopped by the addition of 400 mM Na2CO3. The released para-nitrophenol was measured spectrometrically at 400 nm. All reactions run in methanol.

For a further assay, the target named is T1, porcine kidney trehalase (Sus scrofa, UniProt I3LIR5).
T1 construct: purchased Sigma-Aldrich Co; host or cells: porcine kidney
T1 sequence (I3LIR5 24-583): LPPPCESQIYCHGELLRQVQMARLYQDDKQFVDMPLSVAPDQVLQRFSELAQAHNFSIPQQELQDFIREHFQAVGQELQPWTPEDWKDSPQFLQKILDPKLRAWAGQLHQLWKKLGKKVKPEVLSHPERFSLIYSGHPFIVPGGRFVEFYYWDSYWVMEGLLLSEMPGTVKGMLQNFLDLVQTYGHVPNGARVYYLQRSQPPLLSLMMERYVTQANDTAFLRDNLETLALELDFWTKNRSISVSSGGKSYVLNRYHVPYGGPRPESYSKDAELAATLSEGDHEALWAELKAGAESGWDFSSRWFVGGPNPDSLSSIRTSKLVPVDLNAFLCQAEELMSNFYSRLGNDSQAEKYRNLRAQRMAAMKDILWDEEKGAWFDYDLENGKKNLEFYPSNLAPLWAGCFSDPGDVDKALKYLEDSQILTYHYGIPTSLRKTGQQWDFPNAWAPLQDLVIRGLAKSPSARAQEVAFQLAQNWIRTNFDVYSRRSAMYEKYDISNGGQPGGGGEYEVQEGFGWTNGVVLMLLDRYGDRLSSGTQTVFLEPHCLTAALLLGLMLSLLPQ
In words: Glycosidase inhibition, porcine kidney trehalase. The class given is biochemical.
Excerpt: as §1, §2
(§4) The enzymes α-glucosidase (from yeast), β-glucosidases (from almond and bovine liver), α-galactosidase (from coffee beans), β-galactosidase (from bovine liver), α-mannosidase (from Jack bean), β-mannosidase (from snail), α-L-rhamnosidase (from Penicillium decumbens), α-L-fucosidase (from bovine kidney), trehalase (from porcine kidney), β-glucuronidases (from E. coli and bovine liver), amyloglucosidase (from A. niger), para-nitrophenyl glycosides, and various disaccharides were purchased from Sigma-Aldrich Co.
as §3

For another assay, the system named is U87 (glioblastoma). Kind of assay: Cancer screening (MTT growth inhibition), U87. In kind it is cell-based. The settings on record: 72 h; for Percentage (%) cell growth inhibition / inhibition at 25 µM: 25 µM of drug, n = 3, mean ± SEM; for inhibition at 25 µM: read-out: Percentage (%) cell growth inhibition. How it is done:
All test agents were prepared as stock solutions (20 mM) in dimethyl sulfoxide (DMSO) and stored at −20 °C. Cell lines used in the study included: HT29 (colorectal carcinoma), U87 and SJ-G2 (glioblastoma), MCF-7 (breast carcinoma), A2780 (ovarian carcinoma), H460 (lung carcinoma), A431 (skin carcinoma), Du145 (prostate carcinoma), BE2-C (neuroblastoma), MiaPaCa-2 (pancreatic carcinoma), SMA560 (spontaneous murine astrocytoma), and ADDP (Cis Res Ovarian), together with one non-tumor-derived normal breast cell line (MCF10A). All cell lines were incubated in a humidified atmosphere with 5 % CO2 at 37 °C. The cancer cell lines were maintained in Dulbecco’s modified Eagle’s medium (DMEM; Sigma, Australia) supplemented with fetal bovine serum (10%), sodium pyruvate (10 mM), penicillin (100 IUmL^−1), streptomycin (100 µg mL^−1), and L-glutamine (2 mM).
Growth inhibition was determined by plating cells in duplicate in medium (100 µL) at a density of 2500–4000 cells per well in 96-well plates. On day 0 (24 h after plating), when the cells are in logarithmic growth, medium (100 µL) with or without the test agent was added to each well. After 72 h of drug exposure, growth inhibitory effects were evaluated using the (3-(4,5-dimethyltiazol-2-yl)-2,5-diphenyltetrazolium bromide) (MTT) assay and absorbance read at 540 nm. The percentage growth inhibition was calculated at a fixed concentration of 25 µM, based on the difference between the optical density values on day 0 and those at the end of drug exposure. Each data point is the mean ± the standard error of the mean (SEM) calculated from three replicates, which were performed on separate occasions and in separate cell line passages.

Assay [1] addresses T2, bovine kidney α-L-fucosidase (Bos taurus, UniProt Q2KIM0).
T2 construct: purchased Sigma-Aldrich Co; host or cells: bovine kidney
T2 sequence (Q2KIM0 23-468): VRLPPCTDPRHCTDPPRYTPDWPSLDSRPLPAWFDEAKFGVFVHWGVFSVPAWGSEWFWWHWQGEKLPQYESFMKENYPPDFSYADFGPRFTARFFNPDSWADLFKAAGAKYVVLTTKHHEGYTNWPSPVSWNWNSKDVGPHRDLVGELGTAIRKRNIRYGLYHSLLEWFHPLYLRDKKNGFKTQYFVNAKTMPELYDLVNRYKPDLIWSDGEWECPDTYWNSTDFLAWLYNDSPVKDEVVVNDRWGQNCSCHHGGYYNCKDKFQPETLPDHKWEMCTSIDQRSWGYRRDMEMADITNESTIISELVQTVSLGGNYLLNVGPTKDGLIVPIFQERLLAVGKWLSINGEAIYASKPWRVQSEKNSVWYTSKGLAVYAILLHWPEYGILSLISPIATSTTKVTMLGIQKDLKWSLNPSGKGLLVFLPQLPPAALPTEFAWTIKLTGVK
In words: Glycosidase inhibition, bovine kidney α-L-fucosidase. In kind it is biochemical.
Excerpt: as §1, §2, §4, §3

Setting [2] is: at 100 μM, in methanol, read-out: inhibition %.
[3] abbreviates: at 100 μM, read-out: NI: No inhibition.
The mark [4] stands for this setting: at 1000 μM, in methanol, read-out: inhibition %.
[5] abbreviates: at 1000 μM, read-out: NI: No inhibition.

Chain of rice α-glucosidase (Q653V7 34-885): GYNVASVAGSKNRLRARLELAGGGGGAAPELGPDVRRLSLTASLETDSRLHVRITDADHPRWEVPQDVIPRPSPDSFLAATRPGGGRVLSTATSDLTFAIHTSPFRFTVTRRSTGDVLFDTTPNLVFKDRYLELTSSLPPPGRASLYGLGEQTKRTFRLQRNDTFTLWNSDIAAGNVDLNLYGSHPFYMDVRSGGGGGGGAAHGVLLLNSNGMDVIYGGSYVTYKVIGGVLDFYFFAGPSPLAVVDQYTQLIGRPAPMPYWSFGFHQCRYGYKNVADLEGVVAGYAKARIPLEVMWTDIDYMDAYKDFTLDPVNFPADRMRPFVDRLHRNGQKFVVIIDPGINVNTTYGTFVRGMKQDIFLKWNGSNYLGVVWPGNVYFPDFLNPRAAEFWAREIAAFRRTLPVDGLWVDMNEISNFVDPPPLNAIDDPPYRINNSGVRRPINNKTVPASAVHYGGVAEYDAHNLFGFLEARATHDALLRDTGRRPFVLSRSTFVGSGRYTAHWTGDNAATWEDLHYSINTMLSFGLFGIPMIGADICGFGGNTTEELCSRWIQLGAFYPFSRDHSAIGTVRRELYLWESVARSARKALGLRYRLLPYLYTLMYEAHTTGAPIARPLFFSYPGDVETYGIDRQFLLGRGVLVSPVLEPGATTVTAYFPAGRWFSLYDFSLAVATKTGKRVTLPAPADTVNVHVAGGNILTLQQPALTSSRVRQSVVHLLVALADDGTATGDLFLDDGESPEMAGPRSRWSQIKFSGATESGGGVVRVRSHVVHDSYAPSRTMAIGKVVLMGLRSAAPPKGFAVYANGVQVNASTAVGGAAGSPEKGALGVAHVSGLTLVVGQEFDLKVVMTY

Regarding Borocaptate sodium [BSH], the “NI: No inhibition” value (at rice α-glucosidase (at 1000 μM); at porcine kidney trehalase (at 1000 μM); in assay [1] (at 1000 μM)) was “NI (No inhibition (less than 50% inhibition at 1000 μM))” in each case. The inhibition % was 0% on rice α-glucosidase (at 1000 μM, in methanol); 4.2% on porcine kidney trehalase (at 1000 μM, in methanol); 0% in assay [1] (at 1000 μM, in methanol). The “Percentage (%) cell growth inhibition” value in the assay with U87 (glioblastoma) was under 0%.
For `N[C@@H](Cc1ccc(B(O)O)cc1)C(=O)O` [BPA, 4-borono-L-phenylalanine], the inhibition (commonly the change of the read-out against control, counted positive when it falls) at 100 µM was 0% on rice α-glucosidase (setting [2]); under 50% at rice α-glucosidase (setting [3]); 0% on porcine kidney trehalase (setting [2]); under 50% on porcine kidney trehalase (setting [3]); 0% in assay [1] (setting [2]); under 50% in assay [1] (setting [3]). Moreover, in the assay with U87 (glioblastoma), the inhibition at 25 µM was under 0%.
Turning to `CC1(C)OCC(C2OC3OC(C)(C)OC3C2[B-]23OCC[NH+]2CCO3)O1` [Compound 6, 3-Deoxy-3-Boronodiethanolamine-1,2:5,6-Di-O-isopropylidene-α-D-galactofuranose], the inhibition at 100 µM on rice α-glucosidase (setting [2]) is 5.9%; on rice α-glucosidase (setting [3]) it was under 50%; on porcine kidney trehalase (setting [2]) it was 0%; at porcine kidney trehalase (setting [3]), under 50%; in assay [1] (setting [2]), 6.5%; in assay [1] (setting [3]), under 50%. In addition, the inhibition at 25 µM with U87 (glioblastoma) came to 8 ± 4%.
Consider `OCC1OC(O)C(O)C(B(O)O)C1O` [Compound 7, 3-Boronic-3-Deoxy-D-galactose], for which the inhibition at 1000 µM at rice α-glucosidase (setting [4]) was 33.8%; on rice α-glucosidase (setting [5]), under 50%; at porcine kidney trehalase (setting [4]) it was 0.5%; on porcine kidney trehalase (setting [5]), under 50%; in assay [1] (setting [4]), 1.3%; in assay [1] (setting [5]), under 50%. The inhibition at 25 µM in the assay on U87 (glioblastoma) is -6 ± 3%. Also, the GI50 with U87 (glioblastoma) (dose response, read-out: GI50 = Concentration that inhibits cell growth by 50%) is over 50 µM.
For `N[C@@H](Cc1ccc(B(O)O)cc1)C(=O)O` [^10B-BPA], the “NI: No inhibition” value (on rice α-glucosidase (at 100 μM); at porcine kidney trehalase (at 100 μM); in assay [1] (at 100 μM)) was “NI (No inhibition (less than 50% inhibition at 100 μM))” each time. The inhibition % came to 0% at rice α-glucosidase (at 100 μM, in methanol); 0% against porcine kidney trehalase (at 100 μM, in methanol); 0% in assay [1] (at 100 μM, in methanol). In the assay on U87 (glioblastoma), the “Percentage (%) cell growth inhibition” value is under 0%.
